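Where inhibition never reached the appropriate level, the endpoint shown equals the highest concentration tested. Otherwise, values were interpolated linearly from a five-concentration, 48-hour dose response in 96-well plates. The concentration for 50% growth inhibition is given as GI50.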 Active and inactive are the calls of the source. No stated cut-off is given here; in the data, active = GI50 up to about 1.1 µM and inactive = higher.
Legend:
Experiment in all cases: inhibition of tumour cell growth, NCI panel, 48 h
SK-MEL-28 = system: SK-MEL-28
U-251 = system: U-251
SNB-19 = system: SNB-19
SK-MEL-2 = system: SK-MEL-2
NCI-H522 = system: NCI-H522
Malme-3M = system: Malme-3M
COLO 205 = system: COLO 205
A549 = system: A549
M14 = system: M14
EKVX = system: EKVX
XF498 = system: XF498
NCI-H460 = system: NCI-H460
MOLT-4 = system: MOLT-4
HOP-18 = system: HOP-18
SN12C = system: SN12C
OVCAR-3 = system: OVCAR-3
HCT-116 = system: HCT-116
SF-268 = system: SF-268
IGROV-1 = system: IGROV-1
RXF 393 = system: RXF 393
HOP-62 = system: HOP-62
LOX IMVI = system: LOX IMVI
SF-295 = system: SF-295
KM12 = system: KM12
HL-60 = system: HL-60
SR = system: SR
SNB-75 = system: SNB-75
TK-10 = system: TK-10
DLD-1 = system: DLD-1
UACC-62 = system: UACC-62
A498 = system: A498
SK-MEL-5 = system: SK-MEL-5
OVCAR-8 = system: OVCAR-8
786-0 = system: 786-0
OVCAR-4 = system: OVCAR-4
CAKI-1 = system: CAKI-1
HCT-15 = system: HCT-15
HOP-92 = system: HOP-92
UACC-257 = system: UACC-257
SF-539 = system: SF-539
OVCAR-5 = system: OVCAR-5
DMS-114 = system: DMS-114
CCRF-CEM = system: CCRF-CEM
UO-31 = system: UO-31
NCI-H23 = system: NCI-H23
ACHN = system: ACHN
SK-OV-3 = system: SK-OV-3
M19-MEL = system: M19-MEL
SNB-78 = system: SNB-78
HT-29 = system: HT-29
SW-620 = system: SW-620
DMS-273 = system: DMS-273
LXFL 529 = system: LXFL 529
RPMI-8226 = system: RPMI-8226
K562 = system: K562

SMILES: Cc1cc(Br)ccc1/N=N/c1c(C)nn(-c2ccccc2)c1-c1ccccc1
- GI50 (SK-MEL-28): > 100 µM (inactive)
- GI50 (U-251): 27 µM (inactive)
- GI50 (SNB-19): > 100 µM (inactive)
- GI50 (SK-MEL-2): > 100 µM (inactive)
- GI50 (NCI-H522): 51.6 µM (inactive)
- GI50 (Malme-3M): > 100 µM (inactive)
- GI50 (COLO 205): > 100 µM (inactive)
- GI50 (A549): 81.8 µM (inactive)
- GI50 (M14): > 100 µM (inactive)
- GI50 (EKVX): > 100 µM (inactive)
- GI50 (XF498): > 100 µM (inactive)
- GI50 (NCI-H460): 45.8 µM (inactive)
- GI50 (MOLT-4): > 100 µM (inactive)
- GI50 (HOP-18): > 100 µM (inactive)
- GI50 (SN12C): 97.5 µM (inactive)
- GI50 (OVCAR-3): 99.5 µM (inactive)
- GI50 (HCT-116): 9.08 µM (inactive)
- GI50 (SF-268): > 100 µM (inactive)
- GI50 (IGROV-1): 93.5 µM (inactive)
- GI50 (RXF 393): 33.3 µM (inactive)
- GI50 (HOP-62): > 100 µM (inactive)
- GI50 (LOX IMVI): 16.6 µM (inactive)
- GI50 (SF-295): 75.2 µM (inactive)
- GI50 (KM12): 57 µM (inactive)
- GI50 (HL-60): 5.05 µM (inactive)
- GI50 (SR): > 100 µM (inactive)
- GI50 (SNB-75): > 100 µM (inactive)
- GI50 (TK-10): > 100 µM (inactive)
- GI50 (DLD-1): 30.9 µM (inactive)
- GI50 (UACC-62): 27 µM (inactive)
- GI50 (A498): > 100 µM (inactive)
- GI50 (SK-MEL-5): 29 µM (inactive)
- GI50 (OVCAR-8): > 100 µM (inactive)
- GI50 (786-0): 58.3 µM (inactive)
- GI50 (OVCAR-4): > 100 µM (inactive)
- GI50 (CAKI-1): 71.3 µM (inactive)
- GI50 (HCT-15): 9.82 µM
- GI50 (HOP-92): 98.6 µM (inactive)
- GI50 (UACC-257): 49.3 µM (inactive)
- GI50 (SF-539): 92.3 µM (inactive)
- GI50 (OVCAR-5): 53.7 µM (inactive)
- GI50 (DMS-114): 89.5 µM (inactive)
- GI50 (CCRF-CEM): 21.2 µM (inactive)
- GI50 (UO-31): > 100 µM (inactive)
- GI50 (NCI-H23): > 100 µM (inactive)
- GI50 (ACHN): 54.7 µM (inactive)
- GI50 (SK-OV-3): > 100 µM (inactive)
- GI50 (M19-MEL): > 100 µM (inactive)
- GI50 (SNB-78): > 100 µM (inactive)
- GI50 (HT-29): 44.5 µM (inactive)
- GI50 (SW-620): 81.5 µM (inactive)
- GI50 (DMS-273): 34.3 µM (inactive)
- GI50 (LXFL 529): 45.8 µM (inactive)
- GI50 (RPMI-8226): > 100 µM (inactive)
- GI50 (K562): 17 µM (inactive)

Reference: ChEMBL document CHEMBL1201862, “PubChem BioAssay data set” (2004)
